One data set has as its system Apis mellifera. The conditions noted are these: acute; duration: 48 hours; dermal; mortality.
For a further data set, the system named is Avena sativa. The conditions noted are these: acute; duration: 21 days; other.
Another data set deals with Daphnia magna. The conditions noted are these: chronic/long-term; duration: 21 days.
The next data set has as its system Lepomis macrochirus. The conditions noted are these: acute; duration: 96 hours; mortality.
In a further data set the test system is Pimephales promelas. The conditions noted are these: chronic/long-term.
Another data set relates to Tagia sp. The conditions noted are these: acute; duration: 14 days; mortality.
For the next data set, the system named is Aphidius rhopalosiphi. Nature of the data set: LR50; higher = less toxic. The conditions noted are these: acute; duration: 48 hours; mortality.

Values after ≈ are worked out from the molar mass of the structure shown.

Turning to `CNC(=O)ON=C(C)SC` [Methomyl], the LD50 amounted to 0.16 µg/piece with Apis mellifera; 24.2 mg/kg-day with Colinus virginianus (acute, oral, mortality); 27.4 mg/kg-day in the data set on Rattus norvegicus (acute, oral, mortality). This compound registered an LEL in the data set with Avena sativa of 2250 g/ha. Moreover, the LC50 with Colinus virginianus (acute, oral, diet, mortality) was > 519 mg/kg-day; in the data set on Lepomis macrochirus, 0.63 µg/mL (≈ 3.88 µM); in the data set on Tagia sp., 19 mg/kg. Also, the NOEC was determined as 20.3 mg/kg-day with Colinus virginianus (reproduction developmental), 0.0016 mg/L in the data set on Daphnia magna and 0.073 mg/L in the data set on Pimephales promelas. For the same compound, the NOAEL turned out to be 0.25 mg/kg-day in the data set on Rattus norvegicus (acute, clinical chemistry) and 4.6 mg/kg-day in the data set with Rattus norvegicus (reproduction developmental, body weight). The compound also displayed an LR50 with Aphidius rhopalosiphi of 0.25 g/ha.

These data come from EPA's ToxValDB 9.5 (doi:10.2903/j.efsa.2009.222r).
